The results in this text go back to patent US20220079962A1, “NUTRITIONAL COMPOSITION COMPRISING 2'FUCOSYLLACTOSE AND DIETARY BUTYRATE” (N.V. Nutricia, priority 2019, published 2022).

One assay deals with Klebsiella pneumonia K2. The assay can be described thus: Fecal slurry fermentation spiked with pathogens, Klebsiella growth. To be noted: inoculum of baby 2. Here is the method: In addition the test legs were supplemented with Clostridium difficile C153 (difficile agar), Salmonella enteriditis S29 (XLD agar), Cronobacter sakasakii E71 (chromogenic agar) or Klebsiella pneumonia K2 (Simons citrate inositol agar). For every NDO and for the control also a pathogen free culture was prepared.
The experiment was started, and pH setpoint was either 5.5 (facial inoculum from infant 1, vaginally born, breast fed) or pH 6.0 (Inoculum from infant 2, vaginally born, breast fed) with continuous pH regulation, and temperature 37° C., humidity 85%, OD control. At 4, 8 and 24 hours a sample is taken for CFU determination on TOS-propionate MUP agar (total Bifidobacteria), XLD agar for Salmonella enteriditis S29, and Simons citrate inositol agar for Klebsiella pneumonia K2 and for SCFA, D- and L Lactate and ammonia analysis. Fecal pellet was used for 16s DNA sequencing. For both inocula the extent of fermentation, as measured by NaOH consumption, i.e. acid production, was highest with the combination of 3′-GU2′-FL, when compared to 3′-GL or 2′-FL alone. The rate of initial acidification was high for 3′-GL and for 3′-GL/2′-FL. […] As the amount of carbohydrates that can be fermented is the same in the reaction vessels, the higher total acidification with the combination is indicative for an unexpected, synergistic effect of the combination of 2′-FL and 3′-GL. […]

The test system of assay [1] is infant intestinal microbiota. The assay can be described thus: quad-SHIME model of infant intestinal microbiota (SCFA, glycoprofile). On the set-up: species or system human; Butyrate (Mean ± SD) / Iso-Butyrate (Mean ± SD) / Acetate (Mean ± SD): unit not given here. To be noted: distal colon. The text has this:
A faecal sample from a healthy infant born via C-section, exclusively breastfed with no history of antibiotic usage, was used as inoculum to simulate the infant intestinal microbiota in the colon compartments of a quad-SHIME®—a dynamic model of the human gastrointestinal tract comprises 4 SHIME® units running in parallel and each SHIME® unit is composed of 3 reactors simulating the stomach and small intestine, proximal and distal colons.

For the compound “Gal (beta 1-3)-Gal (beta 1-4)-Glc [3′-GL]”, in the assay with Klebsiella pneumonia K2, the “Klebsiella growth” value is “most inhibited”.

Consider `C[C@@H]1O[C@@H](O[C@H]2[C@H](O[C@H]3[C@H](O)[C@@H](O)C(O)O[C@@H]3CO)O[C@H](CO)[C@H](O)[C@@H]2O)[C@@H](O)[C@H](O)[C@@H]1O` (stereo partly drawn) [2′-FL, α-L-Fuc-(1→2)-β-D-Gal-(1→4)-D-Glc], for which, in assay [1], the “butyrate generation relative to the control and the scGOS/IcFOS groups” value is “generated earlier in the distal colon and at a higher concentration”. In assay [1] (D 1-D 3), the “Acetate (Mean ± SD)” value is given as 38.67 ± 10.25, the “Butyrate (Mean ± SD)” value amounted to 0 ± 0, the “Iso-Butyrate (Mean ± SD)” value is recorded as 0 ± 0 and the “Propionate (Mean ± SD)” value is given as 10.17 ± 3.01. Besides, in assay [1] (D 4-D 11), the “Acetate (Mean ± SD)” value is recorded as 26.22 ± 0.97, the “Butyrate (Mean ± SD)” value worked out at 0.74 ± 0.49, the “Iso-Butyrate (Mean ± SD)” value was 0.68 ± 0.75 and the “Propionate (Mean ± SD)” value stood at 6.58 ± 0.49. Further, in assay [1] (D 12-D 15), the “Acetate (Mean ± SD)” value is recorded as 22.96 ± 1.04, the “Butyrate (Mean ± SD)” value amounted to 0.99 ± 0.09, the “Iso-Butyrate (Mean ± SD)” value came out at 0.93 ± 0.21 and the “Propionate (Mean ± SD)” value is given as 6.13 ± 0.63.
